Reference: PubChem BioAssay (NCI)
Several values for one entry are separate records, joined by “and”; a condition that tells them apart may be missing. Equal entries are not always repeated.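 Where inhibition never reached the appropriate level, the endpoint shown equals the highest concentration tested. Otherwise, values were interpolated linearly from a five-concentration, 48-hour dose response in 96-well plates. GI50 = concentration required for 50% inhibition of growth. TGI: total growth inhibition.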

Assays:
Assay in all cases: DTP human tumour cell line panel, 48 h
CAKI-1 renal = system: CAKI-1 renal
NCI-H23 lung = system: NCI-H23 lung
OVCAR-4 ovarian = system: OVCAR-4 ovarian
SNB-19 CNS = system: SNB-19 CNS
HL-60(TB) leukemia = system: HL-60(TB) leukemia
RPMI-8226 leukemia = system: RPMI-8226 leukemia
UACC-257 melanoma = system: UACC-257 melanoma
CCRF-CEM leukemia = system: CCRF-CEM leukemia
SN12C renal = system: SN12C renal
LXFL 529 NSCLC = system: LXFL 529 NSCLC
786-0 renal = system: 786-0 renal
OVCAR-5 ovarian = system: OVCAR-5 ovarian
SNB-75 CNS = system: SNB-75 CNS
HOP-92 NSCLC = system: HOP-92 NSCLC
EKVX NSCLC = system: EKVX NSCLC
NCI-H522 lung = system: NCI-H522 lung
TK-10 renal = system: TK-10 renal
HCT-116 colon = system: HCT-116 colon
K-562 leukemia = system: K-562 leukemia
OVCAR-3 ovarian = system: OVCAR-3 ovarian
OVCAR-8 ovarian = system: OVCAR-8 ovarian
NCI-H226 lung = system: NCI-H226 lung
ACHN renal = system: ACHN renal
SK-MEL-5 melanoma = system: SK-MEL-5 melanoma
A549 NSCLC = system: A549 NSCLC
SW-620 colon = system: SW-620 colon
U251 CNS = system: U251 CNS
MALME-3M melanoma = system: MALME-3M melanoma
DLD-1 colon = system: DLD-1 colon
SNB-78 CNS = system: SNB-78 CNS
HT29 colon = system: HT29 colon
SK-MEL-28 melanoma = system: SK-MEL-28 melanoma
SK-MEL-2 melanoma = system: SK-MEL-2 melanoma
SR leukemia = system: SR leukemia
HOP-62 NSCLC = system: HOP-62 NSCLC
M14 melanoma = system: M14 melanoma
SF-268 CNS = system: SF-268 CNS
SF-295 CNS = system: SF-295 CNS
MOLT-4 leukemia = system: MOLT-4 leukemia
NCI-H460 lung = system: NCI-H460 lung
M19-MEL melanoma = system: M19-MEL melanoma
KM12 colon = system: KM12 colon
KM20L2 colon = system: KM20L2 colon
A498 renal = system: A498 renal
DMS 114 small cell lung = system: DMS 114 small cell lung
COLO 205 colon = system: COLO 205 colon
SK-OV-3 ovarian = system: SK-OV-3 ovarian
UACC-62 melanoma = system: UACC-62 melanoma
XF 498 CNS = system: XF 498 CNS
UO-31 renal = system: UO-31 renal
NCI/ADR-RES ovarian = system: NCI/ADR-RES ovarian
MDA-N = system: MDA-N
LOX IMVI melanoma = system: LOX IMVI melanoma
HS 578T breast = system: HS 578T breast
HCC-2998 colon = system: HCC-2998 colon
RXF 393 renal = system: RXF 393 renal
DU-145 prostate = system: DU-145 prostate
IGROV1 ovarian = system: IGROV1 ovarian
MDA-MB-231 breast = system: MDA-MB-231 breast
MDA-MB-435 = system: MDA-MB-435
BT-549 breast = system: BT-549 breast
SF-539 CNS = system: SF-539 CNS
T-47D breast = system: T-47D breast
PC-3 prostate = system: PC-3 prostate
MCF7 breast = system: MCF7 breast
HCT-15 colon = system: HCT-15 colon

## COc1ccc(-c2ccc(CC(=O)O)cc2)cc1OC
CAKI-1 renal
  TGI: > 100 µM
NCI-H23 lung
  TGI: > 100 µM
OVCAR-4 ovarian
  TGI: > 100 µM
SNB-19 CNS
  TGI: > 100 µM
HL-60(TB) leukemia
  TGI: > 100 µM
RPMI-8226 leukemia
  TGI: > 100 µM
UACC-257 melanoma
  TGI: > 100 µM
CCRF-CEM leukemia
  TGI: > 100 µM
SN12C renal
  TGI: > 100 µM
LXFL 529 NSCLC
  TGI: > 100 µM
786-0 renal
  TGI: > 100 µM
OVCAR-5 ovarian
  TGI: > 100 µM
SNB-75 CNS
  TGI: > 100 µM
HOP-92 NSCLC
  TGI: > 100 µM
EKVX NSCLC
  TGI: > 100 µM
NCI-H522 lung
  TGI: > 100 µM
TK-10 renal
  TGI: > 100 µM
HCT-116 colon
  TGI: > 100 µM
K-562 leukemia
  TGI: > 100 µM
OVCAR-3 ovarian
  TGI: > 100 µM
OVCAR-8 ovarian
  TGI: > 100 µM
NCI-H226 lung
  TGI: > 100 µM
ACHN renal
  TGI: > 100 µM
SK-MEL-5 melanoma
  TGI: > 100 µM
A549 NSCLC
  TGI: > 100 µM
SW-620 colon
  TGI: > 100 µM
U251 CNS
  TGI: > 100 µM
MALME-3M melanoma
  TGI: > 100 µM
DLD-1 colon
  TGI: > 100 µM
SNB-78 CNS
  TGI: > 100 µM
HT29 colon
  TGI: > 100 µM
SK-MEL-28 melanoma
  TGI: > 100 µM
SK-MEL-2 melanoma
  TGI: > 100 µM
SR leukemia
  TGI: > 100 µM
HOP-62 NSCLC
  TGI: > 100 µM
M14 melanoma
  TGI: > 100 µM
SF-268 CNS
  TGI: > 100 µM
SF-295 CNS
  TGI: > 100 µM
MOLT-4 leukemia
  TGI: > 100 µM
NCI-H460 lung
  TGI: > 100 µM
M19-MEL melanoma
  TGI: > 100 µM
KM12 colon
  TGI: > 100 µM
KM20L2 colon
  TGI: > 100 µM
A498 renal
  TGI: > 100 µM
DMS 114 small cell lung
  TGI: > 100 µM
COLO 205 colon
  TGI: > 100 µM
SK-OV-3 ovarian
  TGI: > 100 µM
UACC-62 melanoma
  TGI: > 100 µM
XF 498 CNS
  TGI: > 100 µM
UO-31 renal
  TGI: > 100 µM

## COC(=O)C1OC(O[C@H]2CC[C@]3(C)[C@H]4CC=C5[C@@H]6CC(C)(C)CC[C@]6(C(=O)OC6OCC(O)C(O)C6OC6OC(C)C(OC7OCC(O)C(O)C7O)C(O)C6O)[C@H](O)C[C@@]5(C)[C@]4(C)CC[C@H]3C2(C)C)C(O)C(O)C1O (stereo partly drawn)
CAKI-1 renal
  TGI: 11.2 µM and 14.9 µM
NCI-H23 lung
  TGI: 4.76 µM and 6.24 µM
OVCAR-4 ovarian
  GI50: 0.927 µM and 4.32 µM
  TGI: 6.7 µM and 16.5 µM
NCI/ADR-RES ovarian
  TGI: 22.5 µM and 12.3 µM
SNB-19 CNS
  TGI: 17.5 µM and 21.9 µM
HL-60(TB) leukemia
  TGI: 5.28 µM and 6.62 µM
RPMI-8226 leukemia
  TGI: > 100 µM and 21.3 µM
UACC-257 melanoma
  TGI: 8.87 µM and 18.6 µM
MDA-N
  TGI: 3.77 µM and 12.1 µM
CCRF-CEM leukemia
  GI50: > 68.4 µM and 13.5 µM
  TGI: > 100 µM
LOX IMVI melanoma
  TGI: 19.6 µM and 14.5 µM
HS 578T breast
  TGI: 35.9 µM and 35.2 µM
SN12C renal
  TGI: 3.62 µM and 3.7 µM
786-0 renal
  TGI: 19 µM and 21.8 µM
OVCAR-5 ovarian
  TGI: 15.8 µM and 19.4 µM
SNB-75 CNS
  TGI: 18.5 µM and 20.9 µM
HOP-92 NSCLC
  TGI: 5.2 µM and 8.4 µM
EKVX NSCLC
  TGI: 8.04 µM and 11.1 µM
NCI-H522 lung
  TGI: 6.84 µM and 5.14 µM
TK-10 renal
  TGI: 21.3 µM and 21.5 µM
HCC-2998 colon
  TGI: 6.71 µM and 3.44 µM
HCT-116 colon
  TGI: > 100 µM and 17.4 µM
RXF 393 renal
  TGI: 29 µM and 31.2 µM
DU-145 prostate
  TGI: > 57.7 µM and 26.5 µM
IGROV1 ovarian
  TGI: > 80.4 µM and 26.8 µM
K-562 leukemia
  TGI: > 100 µM
OVCAR-3 ovarian
  TGI: > 78.1 µM and 25 µM
MDA-MB-231 breast
  TGI: 7.48 µM and 4.39 µM
MDA-MB-435
  TGI: 3.78 µM and 5.21 µM
OVCAR-8 ovarian
  GI50: 11.8 µM and 2.76 µM
  TGI: 26.8 µM and 8.47 µM
NCI-H226 lung
  TGI: 13.9 µM and 24.8 µM
ACHN renal
  TGI: 14.6 µM and 14.9 µM
BT-549 breast
  GI50: 3.06 µM and 7.31 µM
  TGI: 8.86 µM and 21.8 µM
SK-MEL-5 melanoma
  TGI: 19.4 µM and 25.8 µM
SF-539 CNS
  GI50: > 100 µM and 19 µM
  TGI: > 100 µM and 37.5 µM
A549 NSCLC
  TGI: 11.8 µM and 14.6 µM
SW-620 colon
  TGI: > 57 µM and 27.2 µM
U251 CNS
  TGI: 17.7 µM and 19.8 µM
MALME-3M melanoma
  GI50: 4.78 µM and 11.2 µM
  TGI: 16.2 µM and 23.6 µM
T-47D breast
  TGI: > 100 µM and 27.2 µM
HT29 colon
  TGI: 9.7 µM and 15.3 µM
SK-MEL-28 melanoma
  TGI: 3.57 µM and 4.63 µM
SK-MEL-2 melanoma
  TGI: 7.83 µM and 7.96 µM
SR leukemia
  TGI: > 100 µM and 13.4 µM
HOP-62 NSCLC
  TGI: 17.8 µM and 22.9 µM
M14 melanoma
  TGI: 7.65 µM and 14.8 µM
SF-268 CNS
  TGI: 22.4 µM and 23.2 µM
SF-295 CNS
  TGI: 13.7 µM and 14.9 µM
MOLT-4 leukemia
  GI50: > 42.6 µM and 14.2 µM
  TGI: > 100 µM
NCI-H460 lung
  GI50: 34 µM and 16.9 µM
  TGI: > 100 µM and 33.4 µM
KM12 colon
  TGI: 13.1 µM and 13 µM
A498 renal
  TGI: 3.55 µM and 3.85 µM
PC-3 prostate
  TGI: 16.9 µM and 16.3 µM
COLO 205 colon
  TGI: 3.02 µM and 3.31 µM
MCF7 breast
  TGI: 10.3 µM and 4.43 µM
SK-OV-3 ovarian
  TGI: 23.5 µM and 26.3 µM
UACC-62 melanoma
  GI50: 2.89 µM and 7.04 µM
  TGI: 8.55 µM and 21.7 µM
HCT-15 colon
  TGI: 42.8 µM and 27.5 µM
UO-31 renal
  TGI: 3.54 µM and 5.18 µM
